Like-named read-outs stand apart in the source and are kept apart here.
Legend:
Format in all cases: cell-based
[1] = tested on: SW620 colon cancer cell with KRAS G12V mutation; test: Proliferation inhibition on RAS cell lines measured by CTG, SW620; details: Homo sapiens, SW-620, 144 h; Table 2; SW620 cells, incubated for 6 days, CellTiter Glo; read-out: IC50 (SW620^c)
Source text: (§1) NCI-H358 is a human non-small cell lung cancer cell line with KRAS G12C mutation; AGS is a gastric cancer cell line with KRAS G12D mutation; SW620 is a colon cancer cell with KRAS G12V mutation; NCI-H460 is a non-small cell lung cancer cell with KRAS Q61H mutation; MKN1 is a wild-type gastric cancer cell with KRAS-amplified; LS513 is a colon cancer cell with KRAS G12D mutation; LoVo is a colon cancer cell with KRAS G13D mutation; NCI-H441 is a lung cancer cell with KRAS G12V mutation, and Capan-2 is a pancreatic cancer cell with KRAS G12V mutation.
(§2) The proliferation inhibitory effect of the compounds on various mutations was evaluated by determining the proliferation inhibitory activity of the compounds on these cell lines.
(§3) The assay was conducted on either 384-well plates or 96-well plates. The procedures are as follows:
(§4) The cell suspensions were added to 384- or 96-well plates (384-well plate: 50 μL; 96-well plate: 100 μL) except for peripheral wells. The plates were placed in a carbon dioxide incubator overnight. NCI-H358, AGS, NCI-H460, MKN-1, LS513, LoVo, and NCI-H441 were placed in a 5%, 370 carbon dioxide incubator overnight, and SW620 was placed in a 0%, 370 carbon dioxide incubator overnight. The HPD300 micro-dosing instrument was used to add the corresponding concentration of compound to each well (9-10 concentration gradients of compound were obtained by 3-fold dilution). Cell plates were incubated in a carbon dioxide incubator for 5-6 days. NCI-H358, AGS, NCI-H460 and MKN-1 were incubated at 5%, 37° incubator and SW620 was incubated at 0%, 370 incubator. On the day of plate measurement, the 384- or 96-well plates were first equilibrated at room temperature for 10-30 min, then CellTiter Glo reagent (384-well plate: 25 μL; 96-well plate: 100 μL) was added to the 384- or 96-well plate, shaken for 10 min away from light, and incubated for 10 min. The plates were placed into Victor NIVO or ENVIDION reader plates, and XLFit was utilized to plot the pharmacodynamic inhibition curve and calculate the IC50 value. “IC50>10 μM” is denoted by “*”, “10 μM≥IC50≥1 μM” is denoted by “**”, and “1 μM≥IC50>100 nM” is denoted by “***”, “IC50<100 nM” is denoted by “****”

[2] = tested on: LS513 colon cancer cell with KRAS G12D mutation; test: Proliferation inhibition on RAS cell lines measured by CTG, LS513; details: LS513 cells, incubated for 6 days, CellTiter Glo
Source text: as §1, §2, §3, §4

[3] = tested on: NCI-H441 lung cancer cell with KRAS G12V mutation; test: Proliferation inhibition on RAS cell lines measured by CTG, NCI-H441; details: Homo sapiens, NCI-H441, 144 h, Table 2; NCI-H441 cells, incubated for 6 days, CellTiter Glo
Source text: as §1, §2, §3, §4

[4] = tested on: GP2D cells; test: Proliferation inhibition on RAS cell lines measured by CTG, GP2D; details: CellTiter Glo
Procedure: as §2, §3, §4

[5] = Homo sapiens, LS-513, 144 h, Table 2, read-out: IC50 (LS513^f)
[6] = Table 3, incubated for 6 days, read-out: IC50 (GP2D^l)
[7] = Table 3, read-out: IC50 (LS513^k)
[8] = 144 h, Table 3, incubated for 6 days, read-out: IC50 (GP2D^l)
[9] = Homo sapiens, LS-513, 144 h, Table 3, read-out: IC50 (LS513^k)
[10] = 144 h, Table 2, incubated for 6 days, read-out: IC50 (GP2D^j)

IC50 [2, 5]	IC50 [2, 9]	SMILES	IC50 [4, 8]	also measured
–	100 to 1000 nM	C#Cc1c(F)ccc2cc(O)cc(-c3ncc4c(N5CCCCCN5)nc(OC[C@@]56CC[C@H](c7ccc(OC(F)(F)F)cc7)N5C[C@H](F)C6)nc4c3F)c12 [Compound 121]	100 to 1000 nM	–
< 100 nM	–	[2H]C([2H])(Oc1nc(N2CCCCCN2)c2cnc(-c3cc(O)cc4ccc(F)c(C#C)c34)c(F)c2n1)[C@@]12CCCN1C[C@H](F)C2 [Compound 82]	–	IC50 [4, 10]: < 100 nM
–	100 to 1000 nM	C#Cc1c(F)ccc2cc(O)cc(-c3ncc4c(N5CCCCCN5)nc(OCC56COC(C5)C6)nc4c3F)c12 [Compound 137]	100 to 1000 nM	–
< 100 nM	–	C#Cc1c(F)ccc2cc(O)cc(-c3ncc4c(N5CCCCCN5C(=O)C(F)(F)F)nc(OC[C@@]56CCCN5C[C@H](F)C6)nc4c3F)c12 [Compound 68]	–	IC50 [4, 10]: < 100 nM
< 100 nM	–	Nc1cc(Cl)c(C(F)(F)F)c(-c2ncc3c(N4CCCCCN4)nc(OC[C@@]45CCCN4C[C@H](F)C5)nc3c2F)c1 [Compound 81]	–	IC50 [4, 10]: 100 to 1000 nM
–	100 to 1000 nM	C#Cc1c(F)ccc2cc(O)cc(-c3ncc4c(N5CCCCCN5)nc(OC[C@@]56CC[C@H](c7ccc(C(F)(F)F)c(F)c7)N5C[C@H](F)C6)nc4c3F)c12 [Compound 118]	100 to 1000 nM	–
< 100 nM	–	C#Cc1c(F)ccc2cc(O)cc(-c3ncc4c(N5CCCCCN5)nc(OC[C@@H]5CCCN5C)nc4c3F)c12 [Compound 72]	–	IC50 [4, 10]: < 100 nM
–	< 100 nM	C#Cc1c(F)ccc2cc(O)cc(-c3ncc4c(N5CCCCCN5)nc(OCC5(CN6CCC(=CF)CC6)CC5)nc4c3F)c12 [Compound 106]	< 100 nM	–
–	< 100 nM	C#Cc1c(F)ccc2cc(O)cc(-c3ncc4c(N5CCCCCN5)nc(OCC5(C)CN(C)CCC5CF)nc4c3F)c12 (centres unmarked) [Compound 150]	< 100 nM	–
100 to 1000 nM	–	C#Cc1c(F)ccc2cc(O)cc(-c3ncc4c(N5CCCCCN5)nc(OC[C@]56CCCN5[C@H](c5cc(F)c(F)c(F)c5)CC6)nc4c3F)c12 [Compound 85]	–	IC50 [4, 10]: 100 to 1000 nM
–	< 100 nM	C#Cc1c(F)ccc2cc(O)cc(-c3ncc4c(N5CCCCCN5)nc(OCC5(C)CN(C)CCC5C(F)F)nc4c3F)c12 (centres unmarked) [Compound 149]	< 100 nM	–
–	100 to 1000 nM	CCc1c(F)ccc2cc(N)cc(-c3c(Cl)cc4c(N5CCCCCN5)nc(OC[C@@]56CCCN5C[C@H](F)C6)nc4c3F)c12 [Compound 134]	1000 to 10000 nM	–

The next lines start with the molecule.

SMILES	IC50 [2, 5]	IC50 [2, 9]	IC50 [4, 8]	also measured
C#Cc1c(F)ccc2cc(O)cc(-c3c(Cl)cc4c(N5CCCCCN5)nc(OC[C@@]56CCCN5C[C@H](F)C6)nc4c3F)c12 [Compound 41]	–	–	–	IC50 [1]: 1000 to 10000 nM
C#Cc1c(F)ccc2cc(O)cc(-c3ncc4c(N5CCCN5)nc(OC[C@@]56CCCN5C[C@H](F)C6)nc4c3F)c12 [Compound 18]	1000 to 10000 nM	–	–	IC50 [3]: 1000 to 10000 nM
C#Cc1c(F)ccc2cc(N)cc(-c3ncc4c(N5CCCCCN5)nc(OC[C@@]56CCCN5C[C@H](F)C6)nc4c3F)c12 [Compound 30]	< 100 nM	–	–	IC50 [1]: < 100 nM
C#Cc1c(F)ccc2cc(OC(=O)COCCOCCOCCOC)cc(-c3ncc4c(N5CCCCCN5)nc(OC[C@@]56CCCN5C[C@H](F)C6)nc4c3F)c12 [Compound 102]	–	–	–	IC50 [4, 6]: < 100 nM; IC50 [2, 7]: < 100 nM
C#Cc1c(F)ccc2cc(OC(=O)NCCOC)cc(-c3ncc4c(N5CCCCCN5)nc(OC[C@@]56CCCN5C[C@H](F)C6)nc4c3F)c12 [Compound 93]	–	< 100 nM	< 100 nM	–
C#Cc1c(F)ccc2cc(N)cc(-c3c(F)cc4c(N5CCCCCN5)nc(OC[C@@]56CCCN5C[C@H](F)C6)nc4c3F)c12 [Compound 131]	–	–	–	IC50 [4, 6]: 100 to 1000 nM; IC50 [2, 7]: 100 to 1000 nM
C#Cc1c(F)ccc2cc(OC(=O)N3CCCCC3)cc(-c3ncc4c(N5CCCCCN5)nc(OC[C@@]56CCCN5C[C@H](F)C6)nc4c3F)c12 [Compound 99]	–	< 100 nM	< 100 nM	–
C#Cc1c(F)ccc2cc(OC(=O)N3CCOCC3)cc(-c3ncc4c(N5CCCCCN5)nc(OC[C@@]56CCCN5C[C@H](F)C6)nc4c3F)c12 [Compound 90]	–	< 100 nM	< 100 nM	–
C#Cc1c(F)ccc2cc(O)cc(-c3ncc4c(N5CC(O)CCCN5)nc(OC[C@@]56CCCN5C[C@H](F)C6)nc4c3F)c12 (some centres unmarked) [Compound 39]	–	–	–	IC50 [1]: 1000 to 10000 nM
C#Cc1c(F)ccc2cc(O)cc(-c3c(F)cc4c(N5CCCCCN5)nc(OC[C@@]56CCCN5C[C@H](F)C6)nc4c3F)c12 [Compound 49]	< 100 nM	–	–	IC50 [1]: < 100 nM
C#Cc1c(F)ccc2cc(OC(=O)[C@@H](NC(=O)OC(C)(C)C)C(C)C)cc(-c3ncc4c(N5CCCCCN5)nc(OC[C@@]56CCCN5C[C@H](F)C6)nc4c3F)c12 [Compound 95]	–	–	–	IC50 [4, 6]: < 100 nM; IC50 [2, 7]: < 100 nM
C#Cc1c(F)ccc2cc(O)cc(-c3ncc4c(N5CCCCCN5)nc(OCC56CCCN5CC(F)(F)C6)nc4c3F)c12 (centres unmarked) [Compound 37]	< 100 nM	–	–	IC50 [1]: < 100 nM
C#Cc1c(F)ccc2cc(OC(=O)NCCCCCCCCCCCC)cc(-c3ncc4c(N5CCCCCN5)nc(OC[C@@]56CCCN5C[C@H](F)C6)nc4c3F)c12 [Compound 133]	–	< 100 nM	< 100 nM	–
C#Cc1c(F)ccc2cc(OC(=O)N(C)CCNC)cc(-c3ncc4c(N5CCCCCN5)nc(OC[C@@]56CCCN5C[C@H](F)C6)nc4c3F)c12 [Compound 153]	–	< 100 nM	< 100 nM	–
C#Cc1c(F)ccc2cc(OC(=O)c3cc(F)c(F)c(F)c3)cc(-c3ncc4c(N5CCCCCN5)nc(OC[C@@]56CCCN5C[C@H](F)C6)nc4c3F)c12 [Compound 126]	–	–	–	IC50 [4, 6]: < 100 nM; IC50 [2, 7]: < 100 nM
C#Cc1c(F)ccc2cc(OC(=O)NCCOCCOC)cc(-c3ncc4c(N5CCCCCN5)nc(OC[C@@]56CCCN5C[C@H](F)C6)nc4c3F)c12 [Compound 92]	–	< 100 nM	< 100 nM	–
C#Cc1c(F)ccc2cc(O)cc(-c3ncc4c(N5CCCC(O)CN5)nc(OC[C@@]56CCCN5C[C@H](F)C6)nc4c3F)c12 (some centres unmarked) [Compound 38]	–	–	–	IC50 [1]: 1000 to 10000 nM
C#Cc1c(F)ccc2cc(OC(=O)NCCCCCCCC)cc(-c3ncc4c(N5CCCCCN5)nc(OC[C@@]56CCCN5C[C@H](F)C6)nc4c3F)c12 [Compound 69]	< 100 nM	–	–	IC50 [4, 10]: < 100 nM
C#Cc1c(F)ccc2c(F)c(O)cc(-c3ncc4c(N5CCCCCN5)nc(OC[C@@]56CCCN5C[C@H](F)C6)nc4c3F)c12 [Compound 64]	< 100 nM	–	–	IC50 [4, 10]: < 100 nM
C/C=C\c1c(Cl)cc2[nH]ncc2c1-c1c(F)cc2c(N3CCCCCN3)nc(OC[C@@]34CCCN3C[C@H](F)C4)nc2c1F [Compound 50]	100 to 1000 nM	–	–	IC50 [1]: 100 to 1000 nM
C#Cc1c(F)ccc2cc(OC(=O)N[C@H](C(=O)O)[C@@H](C)CC)cc(-c3ncc4c(N5CCCCCN5)nc(OC[C@@]56CCCN5C[C@H](F)C6)nc4c3F)c12 [Compound 96]	–	–	–	IC50 [4, 6]: < 100 nM; IC50 [2, 7]: < 100 nM
CCc1c(F)ccc2c(F)c(O)cc(-c3ncc4c(N5CCCCCN5)nc(OC[C@@]56CCCN5C[C@H](F)C6)nc4c3F)c12 [Compound 125]	–	–	–	IC50 [4, 6]: 100 to 1000 nM; IC50 [2, 7]: 100 to 1000 nM

Reference: patent US20240425512A1, “NITROGEN-CONTAINING HETEROCYCLIC COMPOUND, PHARMACEUTICAL COMPOSITION THEREOF AND APPLICATION THEREOF” (280 Bio, Inc., priority 2023, published 2024)
